Results published in patent US10561703B2, “Method of modulating sex hormone levels using a sex hormone secretion modulator” (GEMVAX & KAEL CO., LTD., priority 2013, dated 2020).

Legend:
[1] = system: GnRH mRNA; assay: Relative GnRH mRNA expression in serum, real-time qPCR; type: in vivo, Sprague-Dawley (SD) rats; conditions: 100 mg/kg sc, 4 hr post-administration, Day 1
Description: Sprague-Dawley (SD) rats were obtained from Orient Bio (Gyronggi-do, South Korea), and seven-week-old rats were used for the study. Rat were administered by subcutaneous (sc) injection of PEP-1 (100 mg/kg) twice (at Day 1 and at Day 7) during the seven day study period. Blood samples (1.4 mL) were collected at Day 0 (before the administration of PEP-1), at Day 1 (4 hr and 8 hr post injection), and at Day 7 (4 hr post injection). Serum samples obtained from the blood were used for the experiment. Serum samples prepared from the blood collected at Day 1 (4 hr post injection) were used for the experiment. The animal care and procedures were approved and in accordance with the Korea Animal Medical Science Institute (KAMSI) IACUC.
RNA isolation and cDNA synthesis from the serum samples. The external control, miRNeasy Serum/Plasma Spike-In Control was added in each serum sample prior to the RNA extraction. […]
Real-time qPCR was performed using the RT2 SYBR Green qPCR Mastermix kit (Qiagen) with a CFX96 Real-Time System (Bio-Rad, Hercules, Calif., USA). Data was analyzed by CFX Manager™ Software V3.0 using the ΔΔCt method.
Rat serum samples obtained from the blood collected at 4 hr post-administration of PEP-1 (100 mg/kg) on the 1st day of the experiment were analyzed for the mRNA expression of gonadotropin-releasing hormone (GnRH). […]

[2] = system: WPMY-1; assay: Cell proliferation (CCK-8) in prostate mesenchymal cell line; type: cell-based
Description: When testosterone is injected into the body, testosterone becomes dihydrotestosterone (DHT) due to 5α-reductase, which stimulates the proliferation of prostate cells and induces benign prostatatic hyperplasia (BPH). Based on these facts, a PEP-1 (GV1001) injection experiment was performed for the inhibition of proliferation of prostatic cells in the following manner: The cell lines were mesenchymal cell lines (WPMY-1) and epithelial cell lines (RWPE-1) of prostates obtained from BPH animal models. […] Observation of changes in the proliferation was performed by suctioning a culture medium, adding 10 μL of CCK-8 solution to each well, and measuring an optical density at 450 nm for 1 hour to about 4 hours.

EARPALLTSRLRFIPK (listed as Homo sapiens) [PEP-1, hormone secretion modulator / GnRH analog]
Relative GnRH mRNA expression in serum ([1]; female rats): increased the relative GnRH mRNA expression
Relative GnRH mRNA expression in serum ([1]; male rats): increased the relative GnRH mRNA expression
Cell proliferation (optical density at 450 nm) versus untreated cells ([2]; WPMY-1, 100 and 200 μM GV1001, no DHT): did not show a substantial difference in optical densities
Inhibition of DHT-induced cell proliferation ([2]; WPMY-1, 100 and 200 μM GV1001 with 25 nM DHT): substantial inhibition effects on proliferation
